pEC50: −log10 of the molar value.
Columns and labels:
[1] = target: T1, hFXR (Homo sapiens (Human), UniProt Q96RI1); assay: In Vitro FXR Assay (TK), luciferase reporter in transfected CV-1 cells; format: cell-based; settings: TK-ECRE-luc reporter, hFXR/hRXR, 18 hrs, maximum efficacy <25% of Fexaramine control classified as '+'
Outline: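 Transiently transfected monkey CV-1 cells (hFXR, hRXR, TK-ECRE-luciferase, YFP control plasmid), held in stripped-serum DMEM, received compound dilutions from DMSO for 18 h at 37 °C. Activity was taken from luminescence of the cell lysates.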

[2] = target: T1, hFXR; assay: In Vitro FXR Assay (PGL3), luciferase reporter in transfected CV-1 cells; format: cell-based; settings: PGL3-ECRE*6-luc reporter, hFXR/hRXR, 18 hrs incubation
Protocol: CV-1 cells were seeded at a density of 2,000,000 cells in a T175 flask with DMEM+10% charcoal double-stripped FBS and incubated at 37° C. in a 5% CO2 for 18 h (O/N).
After 18 h of incubation, the medium in the T175 flask was changed with fresh DMEM+10% charcoal super-stripped serum.
To prepare the transfection reaction mixture, the transfection reagent (X-tremeGENE HP from Roche, Cat #06 366 236 001) was added in to a 1.5 mL microcentrifuge tube labelled “A” at a ratio of 1:3 (DNA in μg: transfection reagent in μL). OptiMEM medium (Life Technologies, Cat #31985-062) was added accordingly to provide a total volume of 1 mL. The transfection reaction mixture was then briefly vortexed and incubated at room temperature for 5 minutes.
In a separate 1.5 mL microcentrifuge tube labelled “B”, 100 μL OptiMEM and plasmids XPD90Gal pCMXhFXRfl, pCMXhRXRfl+PGL3-ECRE*6-luc+CMX-YFP in the ratio 2 μg: 2 μg:18 μg:3 μg were added. This microcentrifuge tube “B” was then briefly vortexed and incubated at room temperature for 5 minutes.
The total volume in tube labelled “A” was then transferred in to tube labelled “B.” The mixture was then briefly vortexed and the transfection:DNA complex was then incubated for about 15-20 minutes at room temperature.
Following incubation, the transfection reagent/DNA mixture complex was then added to cells in the T175 flask and the cells were incubated at […] (O/N) at 37° C. in 5% CO2.
In a 96 well plate, a half logarithmic serial dilution was prepared. OptiMEM was used as the diluent. Using any of one of the compounds described herein, a compound stock solution of 10 mM was prepared. An initial 1:100 dilution was made into the first well for a final concentration of 100 μM. The final concentrations in the 96-well plate was prepared by using a multichannel pipette to transfer 5 μL of the diluted compound to 384-well plate in quadruplicate.
Cells in T175 flask were trypsinized and cells were resuspending in 40 mL phenol red free DMEM+10% charcoal super-stripped FBS. Typically, one T175 flask was sufficient to seed two 384 well plates. CV-1 cells were seeded at 45 μL cell suspension/well using a multichannel pipet or a 384 multidrop dispenser. The cells were then incubated for 18 hrs, overnight.
After removing the plates from the incubator, the medium was flicked out of plate and 384 well plate was turned upside down onto paper towel. The remaining medium was gently tapped out. 15 μL lysis buffer was then added to each well using a multichannel pipet or a 384 well multi-drop dispenser. After incubation for 10 minutes at room temperature on shaker, 30 μL Luciferase buffer was added to each well. Luminescence counts were taken immediately using the Perkin Elmer Envision.
The ability of the compounds disclosed herein to […] FXR activity was quantified and the respective EC50 value was determined. Fex=fexaramine.

T1 sequence (Q96RI1 whole entry): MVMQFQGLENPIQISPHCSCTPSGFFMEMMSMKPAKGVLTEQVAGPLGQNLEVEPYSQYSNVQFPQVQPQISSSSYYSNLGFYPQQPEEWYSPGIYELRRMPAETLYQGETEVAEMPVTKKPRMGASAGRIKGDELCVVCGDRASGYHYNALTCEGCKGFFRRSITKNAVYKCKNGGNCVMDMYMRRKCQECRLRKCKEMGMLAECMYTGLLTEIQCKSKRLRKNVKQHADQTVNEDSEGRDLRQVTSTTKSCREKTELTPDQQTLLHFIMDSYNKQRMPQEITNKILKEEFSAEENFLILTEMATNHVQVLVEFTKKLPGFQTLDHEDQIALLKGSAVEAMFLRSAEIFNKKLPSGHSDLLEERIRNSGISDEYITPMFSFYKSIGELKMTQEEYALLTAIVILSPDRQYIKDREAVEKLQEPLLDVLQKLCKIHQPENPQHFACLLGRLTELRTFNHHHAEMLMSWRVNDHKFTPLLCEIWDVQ
T1 sequence (P19793 whole entry partner): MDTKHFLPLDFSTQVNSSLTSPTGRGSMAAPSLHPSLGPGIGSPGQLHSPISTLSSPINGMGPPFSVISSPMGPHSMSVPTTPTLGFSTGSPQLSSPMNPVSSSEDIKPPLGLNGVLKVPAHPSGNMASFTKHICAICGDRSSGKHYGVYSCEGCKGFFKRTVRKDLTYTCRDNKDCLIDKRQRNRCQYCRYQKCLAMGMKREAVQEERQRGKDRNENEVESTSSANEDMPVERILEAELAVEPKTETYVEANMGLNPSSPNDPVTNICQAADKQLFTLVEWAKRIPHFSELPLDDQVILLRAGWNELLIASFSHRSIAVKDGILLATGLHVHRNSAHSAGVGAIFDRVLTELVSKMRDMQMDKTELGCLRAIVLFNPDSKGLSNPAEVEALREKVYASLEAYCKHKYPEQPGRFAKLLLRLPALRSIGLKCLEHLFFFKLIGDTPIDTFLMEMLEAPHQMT

SMILES	pEC50 [1]	Cmpd/Fex (ratio of the EC50 for the test compound relative to the EC50 of the Fexaramine control) [2]
COC(=O)/C=C/c1ccnc(N(Cc2ccc(-c3ccc(N(C)C)cc3)cc2)C(=O)C2CCCCC2)c1 [Compound 1, (E)-Methyl 3-(2-(N-((4′-(dimethylamino)-[1,1′-biphenyl]-4-yl)methyl)cyclohexanecarboxamido)pyridin-4-yl)acrylate]	≥ 6.00	+++ (‘+++’ means Cmpd/Fex < 10)
COC(=O)/C=C/c1cccc(N(Cc2ccc(-c3ccc(N(C)C)cc3)cc2)C(=O)C2CCCCC2)n1 [Compound 2, (E)-Methyl 3-(6-(N-((4′-(dimethylamino)-[1,1′-biphenyl]-4-yl)methyl)cyclohexanecarboxamido)pyridin-2-yl)acrylate]	≤ 5.00	++ (‘++’ means Cmpd/Fex > 10 & < 100)
COC(=O)/C=C/c1cc(N(Cc2ccc(-c3ccc(N(C)C)cc3)cc2)C(=O)C2CCCCC2)ccn1 [Compound 3, (E)-Methyl 3-(4-(N-((4′-(dimethylamino)-[1,1′-biphenyl]-4-yl)methyl)cyclohexanecarboxamido)pyridin-2-yl)acrylate]	5.00 to 6.00	+++ (‘+++’ means Cmpd/Fex < 10)
COC(=O)/C=C/c1ccnc(N(Cc2ccc(-c3ccc(N(C)C)cc3)cc2)C(=O)C2CCOCC2)c1 [Compound 4, (E)-Methyl 3-(2-(N-((4′-(dimethylamino)-[1,1′-biphenyl]-4-yl)methyl)tetrahydro-2H-pyran-4-carboxamido)pyridin-4-yl)acrylate]	5.00 to 6.00	+++ (‘+++’ means Cmpd/Fex < 10)
COC(=O)/C=C/c1ccnc(N(Cc2ccc(-c3ccc(N(C)C)nc3)cc2)C(=O)C2CCOCC2)c1 [Compound 6, (E)-Methyl 3-(2-(N-(4-(6-(dimethylamino)pyridin-3-yl)benzyl)tetrahydro-2H-pyran-4-carboxamido)pyridin-4-yl)acrylate]	5.00 to 6.00	+ (‘+’ means Cmpd/Fex > 100)
COC(=O)/C=C/c1ccnc(N(Cc2ccc(-c3ccc(N(C)C)nc3)cc2)C(=O)[C@H]2CC[C@H](O)CC2)c1 [Compound 7, (E)-Methyl 3-(2-(trans-N-(4-(6-(dimethylamino)pyridin-3-yl)benzyl)-4-hydroxycyclohexanecarboxamido)pyridin-4-yl)acrylate]	5.00 to 6.00	+ (‘+’ means Cmpd/Fex > 100)
COC(=O)c1ccc2c(N(Cc3ccc(-c4ccc(N(C)C)cc4)cc3)C(=O)C3CCCCC3)cccc2c1 [Compound 8, Methyl 5-(N-((4′-(dimethylamino)-[1,1′-biphenyl]-4-yl)methyl)cyclohexanecarboxamido)-2-naphthoate]	5.00 to 6.00	++ (‘++’ means Cmpd/Fex > 10 & < 100)
CN(C)c1ccc(-c2ccc(CN(C(=O)C3CCCCC3)c3cccc4ccccc34)cc2)cc1 [Compound 9, N′-((4′-(Dimethylamino)-[1,1′-biphenyl]-4-yl)methyl)-N-(naphthalen-1-yl)cyclohexanecarboxamide]	≤ 5.00	++ (‘++’ means Cmpd/Fex > 10 & < 100)
COC(=O)c1ccc2c(N(C[C@H]3CC[C@H](c4ccc(Cl)cc4)CC3)C(=O)CC(C)(C)C)nccc2c1 [Compound 95, Methyl 1-(N-((trans-4-(4-chlorophenyl)cyclohexyl)methyl)-3,3-dimethylbutanamido)isoquinoline-6-carboxylate]	5.00 to 6.00	–
COC(=O)c1ccc2c(N(C[C@H]3CC[C@H](c4ccc(OC)c(C)c4)CC3)C(=O)CC(C)(C)C)nccc2c1 [Compound 96, Methyl 1-(N-((trans-4-(4-methoxy-3-methylphenyl)cyclohexyl)methyl)-3,3-dimethylbutanamido)isoquinoline-6-carboxylate]	≥ 6.00	–
COC(=O)c1ccc2c(N(CC3CCN(c4ccc(OC)c(C)c4)CC3)C(=O)CC(C)(C)C)nccc2c1 [Compound 98, Methyl 1-(N-((1-(4-methoxy-3-methylphenyl)piperidin-4-yl)methyl)-3,3-dimethylbutanamido)isoquinoline-6-carboxylate]	5.00 to 6.00	–
COC(=O)c1ccc2c(N(C[C@H]3CC[C@H](c4ccc(OC)c(C)c4)CC3)C(=O)[C@H]3CC[C@H](O)CC3)nccc2c1 [Compound 99, Methyl 1-(trans-4-hydroxy-N-((trans-4-(4-methoxy-3-methylphenyl)cyclohexyl)methyl)cyclohexanecarboxamido) isoquinoline-6-carboxylate]	≥ 6.00	–
COc1ccc([C@H]2CC[C@H](CN(C(=O)CC(C)(C)C)c3nccc4cc(C(=O)O)ccc34)CC2)cc1C [Compound 100, 1-(N-((trans-4-(4-Methoxy-3-methylphenyl)cyclohexyl)methyl)-3,3-dimethylbutanamido)isoquinoline-6-carboxylic Acid]	5.00 to 6.00	–
COc1ccc(-c2ccc(CN(C(=O)CC(C)(C)C)c3nccc4cc(C(=O)O)ccc34)cc2)cc1C [Compound 101, 1-(N-((4′-methoxy-3′-methyl-[1,1′-biphenyl]-4-yl)methyl)-3,3-dimethylbutanamido) isoquinoline-6-carboxylic acid]	≤ 5.00	–
COC(=O)/C=C/c1ccc2c(N(Cc3ccc(-c4ccc(OC)c(C)c4)cc3)C(=O)CC(C)(C)C)nccc2c1 [Compound 102, (E)-Methyl 3-(1-(N-((4′-methoxy-3′-methyl-[1,1′-biphenyl]-4-yl)methyl)-3,3-dimethylbutanamido)isoquinolin-6-yl)acrylate]	5.00 to 6.00	–
COc1ccc(-c2ccc(CN(C(=O)CC(C)(C)C)c3nccc4cc(/C=C/C(=O)O)ccc34)cc2)cc1C [Compound 103, (E)-3-(1-(N-((4′-Methoxy-3′-methyl-[1,1′-biphenyl]-4-yl)methyl)-3,3-dimethylbutanamido)isoquinolin-6-yl)acrylic Acid]	5.00 to 6.00	–
COc1ccc(-c2ccc(CN(C(=O)CC(C)(C)C)c3nccc4cc(CCC(=O)O)ccc34)cc2)cc1C [Compound 104, 3-(1-(N-((4′-Methoxy-3′-methyl-[1,1′-biphenyl]-4-yl)methyl)-3,3-dimethylbutanamido)isoquinolin-6-yl)propanoic Acid]	5.00 to 6.00	–
